Laboratory results reported in patent publication US7998940B2, “Aptamers to von Willebrand factor and their use as thrombotic disease therapeutics” (Archemix Corp., priority 2004, dated 2011).
pKd: −log10 of the molar value. Where two headings read alike, the source gives them in different places. Oligonucleotides are written 5' to 3', each unit as a sugar letter and its base; * is a phosphorothioate linkage, no mark a phosphodiester; rarer units and linkages stand in square brackets, end groups in braces. Plain capitals give the bases only. [invdT] = inverted (3'-3') thymidine; d = 2'-deoxy (DNA); m = 2'-O-methyl

Test system: full length human vWF (SEQ ID NO 7)
Test: dot blot KD determination and extent of binding, full length human vWF;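 also: dot blot binding of aptamers to full length human vWF across a protein titration, incubated 30 minutes at room temperature in 1x DPBS with BSA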
Details: for % binding @ 100 nM vWF: extent of aptamer binding at 100 nM full length human vWF; for pKd: full length human vWF, dot blot, 8 point protein titration, read-out: KD

Substance | % binding @ 100 nM vWF (Phase 1 modification) [%] | pKd (Phase 1 modification) | % binding @ 100 nM vWF (Phase 3 modification) [%] | pKd (Phase 3 modification)
ARC1238: ARC1172 with composite 2'-O methyl replacements in the stem regions (dGdGdCdGdTdGdCdAdGdTmGdCdCdTdTdCmGmGdCdCdGdTdGdCdGdGdTdGdCdCdTdCdCdGdTdCdAdCdGdCdC[invdT]; aptamer) | 43 | 8.70 | – | –
ARC1239: ARC1172 with composite 2'-O methyl replacements in the stem regions (dGdGdCdGdTdGdCdAdGdTdGmCmCdTdTdCdGdGmCdCdGdTdGdCdGdGdTdGdCdCdTdCdCdGdTdCdAdCdGdCdC[invdT]; aptamer) | 37 | 8.30 | – | –
ARC1240: ARC1172 with composite 2'-O methyl replacements in the stem regions (dGdGdCdGdTdGdCdAdGdTmGmCmCdTdTdCmGmGmCdCdGdTdGdCdGdGdTdGdCdCdTdCdCdGdTdCdAdCdGdCdC[invdT]; aptamer) | 40 | 8.40 | – | –
ARC1361: ARC1346 with a mC to dC modification at position 36 (mGmCmGmUdGdCdAmGmUmGmCmCmUmUmCmGmGmCdCmGdTmGdCdGdGdTmGmCdCmUdCdCmGmUdCmAmCmGmC[invdT]) | – | – | 38.5 | 8.10
ARC1362: ARC1361 with single phosphorothioate phosphate backbone modification (mGmCmGmU*dGdCdAmGmUmGmCmCmUmUmCmGmGmCdCmGdTmGdCdGdGdTmGmCdCmUdCdCmGmUdCmAmCmGmC[invdT]) | – | – | 34.3 | 8.00
ARC1363: ARC1361 with single phosphorothioate phosphate backbone modification (mGmCmGmUdG*dCdAmGmUmGmCmCmUmUmCmGmGmCdCmGdTmGdCdGdGdTmGmCdCmUdCdCmGmUdCmAmCmGmC[invdT]; aptamer) | – | – | 32.7 | 7.90
ARC1364: ARC1361 with single phosphorothioate phosphate backbone modification (mGmCmGmUdGdC*dAmGmUmGmCmCmUmUmCmGmGmCdCmGdTmGdCdGdGdTmGmCdCmUdCdCmGmUdCmAmCmGmC[invdT]; aptamer) | – | – | 36.9 | 8.09
ARC1365: ARC1361 with single phosphorothioate phosphate backbone modification (mGmCmGmUdGdCdA*mGmUmGmCmCmUmUmCmGmGmCdCmGdTmGdCdGdGdTmGmCdCmUdCdCmGmUdCmAmCmGmC[invdT]; aptamer) | – | – | 35.4 | 7.97
ARC1366: ARC1361 with single phosphorothioate phosphate backbone modification (mGmCmGmUdGdCdAmGmUmGmCmCmUmUmCmGmGmC*dCmGdTmGdCdGdGdTmGmCdCmUdCdCmGmUdCmAmCmGmC[invdT]; aptamer) | – | – | 28.9 | 7.81
ARC1367: ARC1361 with single phosphorothioate phosphate backbone modification (mGmCmGmUdGdCdAmGmUmGmCmCmUmUmCmGmGmCdC*mGdTmGdCdGdGdTmGmCdCmUdCdCmGmUdCmAmCmGmC[invdT]; aptamer) | – | – | 30.4 | 7.86
ARC1369: ARC1361 with single phosphorothioate phosphate backbone modification (mGmCmGmUdGdCdAmGmUmGmCmCmUmUmCmGmGmCdCmGdT*mGdCdGdGdTmGmCdCmUdCdCmGmUdCmAmCmGmC[invdT]; aptamer) | – | – | 26.2 | 7.79
ARC1370: ARC1361 with single phosphorothioate phosphate backbone modification (mGmCmGmUdGdCdAmGmUmGmCmCmUmUmCmGmGmCdCmGdTmG*dCdGdGdTmGmCdCmUdCdCmGmUdCmAmCmGmC[invdT]; aptamer) | – | – | 22.5 | 8.00
